How the values were obtained:
[1] = molecular target: Epidermal growth factor receptor (Homo sapiens, UniProt P00533); experiment: Inhibition of epidermal growth factor receptor (EGF-R) autophosphorylation in A431 cells; format: functional, cell-based, A-431
[2] = molecular target: Platelet-derived growth factor receptor beta (Rattus norvegicus, UniProt Q05030); experiment: Inhibition of PDGF-BB induced PDGF-B receptor autophosphorylation in rat mesangial cells.; format: functional, cell-based
[3] = molecular target: Cyclin-dependent kinase 1 (Homo sapiens, UniProt P06493); experiment: Inhibition of Cdc2
Chain of Cyclin-dependent kinase 1 (P06493 whole entry): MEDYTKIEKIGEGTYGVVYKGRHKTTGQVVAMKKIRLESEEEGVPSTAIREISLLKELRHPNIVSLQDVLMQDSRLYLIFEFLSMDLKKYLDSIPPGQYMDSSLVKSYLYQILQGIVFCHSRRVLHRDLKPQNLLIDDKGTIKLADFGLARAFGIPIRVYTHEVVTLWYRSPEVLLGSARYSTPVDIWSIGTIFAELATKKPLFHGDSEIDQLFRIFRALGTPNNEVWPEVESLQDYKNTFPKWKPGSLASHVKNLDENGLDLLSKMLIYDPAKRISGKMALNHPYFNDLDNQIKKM

[4] = molecular target: Mitogen-activated protein kinase; ERK1/ERK2 (Homo sapiens, UniProt P27361+P28482); experiment: Inhibition of Mitogen-activated protein kinase; format: protein assay
[5] = molecular target: cAMP-dependent protein kinase (PKA) (Homo sapiens, UniProt P22694+P17612+P22612); experiment: Inhibition of Protein kinase A; format: protein assay
[6] = molecular target: Protein kinase C (PKC); experiment: Inhibition of Protein kinase C; format: protein assay
[7] = molecular target: Proto-oncogene tyrosine-protein kinase Src (Homo sapiens, UniProt P12931); experiment: Inhibition of c-SRC
Chain of Proto-oncogene tyrosine-protein kinase Src (P12931 2-536 limits assumed): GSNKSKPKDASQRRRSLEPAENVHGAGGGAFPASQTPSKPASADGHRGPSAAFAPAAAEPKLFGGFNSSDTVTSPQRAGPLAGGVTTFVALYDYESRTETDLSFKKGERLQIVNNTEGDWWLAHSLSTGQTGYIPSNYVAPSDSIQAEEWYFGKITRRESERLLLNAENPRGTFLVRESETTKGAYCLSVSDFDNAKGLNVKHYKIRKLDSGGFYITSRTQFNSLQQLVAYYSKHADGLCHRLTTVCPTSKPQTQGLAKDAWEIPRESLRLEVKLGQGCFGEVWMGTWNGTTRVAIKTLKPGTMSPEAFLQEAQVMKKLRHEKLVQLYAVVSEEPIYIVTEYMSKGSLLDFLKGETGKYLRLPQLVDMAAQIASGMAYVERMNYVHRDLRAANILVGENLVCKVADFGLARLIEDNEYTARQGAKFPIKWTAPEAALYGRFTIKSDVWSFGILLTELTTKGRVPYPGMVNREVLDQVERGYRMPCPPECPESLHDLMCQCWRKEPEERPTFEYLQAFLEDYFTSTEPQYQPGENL

Chain of Epidermal growth factor receptor (P00533 whole entry): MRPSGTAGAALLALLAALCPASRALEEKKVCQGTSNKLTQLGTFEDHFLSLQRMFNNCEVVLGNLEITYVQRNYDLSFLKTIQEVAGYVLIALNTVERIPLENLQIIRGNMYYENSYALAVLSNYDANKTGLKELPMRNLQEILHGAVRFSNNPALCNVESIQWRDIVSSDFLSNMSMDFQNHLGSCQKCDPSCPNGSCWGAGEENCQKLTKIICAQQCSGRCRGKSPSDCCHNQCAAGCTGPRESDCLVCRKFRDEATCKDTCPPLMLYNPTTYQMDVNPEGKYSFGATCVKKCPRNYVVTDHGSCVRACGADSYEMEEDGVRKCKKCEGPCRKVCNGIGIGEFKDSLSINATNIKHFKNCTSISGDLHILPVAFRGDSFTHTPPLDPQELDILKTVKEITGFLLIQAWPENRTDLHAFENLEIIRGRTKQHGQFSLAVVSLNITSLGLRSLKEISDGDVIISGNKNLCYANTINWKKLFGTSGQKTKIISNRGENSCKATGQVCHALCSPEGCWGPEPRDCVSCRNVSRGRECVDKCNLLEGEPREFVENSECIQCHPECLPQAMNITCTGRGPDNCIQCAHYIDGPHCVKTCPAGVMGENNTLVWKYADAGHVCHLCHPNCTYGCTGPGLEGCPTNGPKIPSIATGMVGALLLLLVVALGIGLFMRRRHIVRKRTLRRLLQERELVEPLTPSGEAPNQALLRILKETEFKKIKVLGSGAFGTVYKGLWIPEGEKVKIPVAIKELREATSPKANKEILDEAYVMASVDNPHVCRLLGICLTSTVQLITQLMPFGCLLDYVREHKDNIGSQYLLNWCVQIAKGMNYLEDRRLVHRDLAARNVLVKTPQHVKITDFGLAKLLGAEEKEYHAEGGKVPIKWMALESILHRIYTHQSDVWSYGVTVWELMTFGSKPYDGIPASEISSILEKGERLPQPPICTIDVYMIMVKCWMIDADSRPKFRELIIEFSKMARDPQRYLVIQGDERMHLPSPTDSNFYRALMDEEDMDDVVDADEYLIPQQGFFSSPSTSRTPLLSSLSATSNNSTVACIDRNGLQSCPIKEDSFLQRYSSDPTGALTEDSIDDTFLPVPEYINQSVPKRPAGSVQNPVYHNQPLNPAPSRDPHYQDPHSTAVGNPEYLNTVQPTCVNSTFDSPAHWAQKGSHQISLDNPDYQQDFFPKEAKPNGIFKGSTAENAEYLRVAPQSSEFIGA
Chain of Platelet-derived growth factor receptor beta (Q05030 whole entry): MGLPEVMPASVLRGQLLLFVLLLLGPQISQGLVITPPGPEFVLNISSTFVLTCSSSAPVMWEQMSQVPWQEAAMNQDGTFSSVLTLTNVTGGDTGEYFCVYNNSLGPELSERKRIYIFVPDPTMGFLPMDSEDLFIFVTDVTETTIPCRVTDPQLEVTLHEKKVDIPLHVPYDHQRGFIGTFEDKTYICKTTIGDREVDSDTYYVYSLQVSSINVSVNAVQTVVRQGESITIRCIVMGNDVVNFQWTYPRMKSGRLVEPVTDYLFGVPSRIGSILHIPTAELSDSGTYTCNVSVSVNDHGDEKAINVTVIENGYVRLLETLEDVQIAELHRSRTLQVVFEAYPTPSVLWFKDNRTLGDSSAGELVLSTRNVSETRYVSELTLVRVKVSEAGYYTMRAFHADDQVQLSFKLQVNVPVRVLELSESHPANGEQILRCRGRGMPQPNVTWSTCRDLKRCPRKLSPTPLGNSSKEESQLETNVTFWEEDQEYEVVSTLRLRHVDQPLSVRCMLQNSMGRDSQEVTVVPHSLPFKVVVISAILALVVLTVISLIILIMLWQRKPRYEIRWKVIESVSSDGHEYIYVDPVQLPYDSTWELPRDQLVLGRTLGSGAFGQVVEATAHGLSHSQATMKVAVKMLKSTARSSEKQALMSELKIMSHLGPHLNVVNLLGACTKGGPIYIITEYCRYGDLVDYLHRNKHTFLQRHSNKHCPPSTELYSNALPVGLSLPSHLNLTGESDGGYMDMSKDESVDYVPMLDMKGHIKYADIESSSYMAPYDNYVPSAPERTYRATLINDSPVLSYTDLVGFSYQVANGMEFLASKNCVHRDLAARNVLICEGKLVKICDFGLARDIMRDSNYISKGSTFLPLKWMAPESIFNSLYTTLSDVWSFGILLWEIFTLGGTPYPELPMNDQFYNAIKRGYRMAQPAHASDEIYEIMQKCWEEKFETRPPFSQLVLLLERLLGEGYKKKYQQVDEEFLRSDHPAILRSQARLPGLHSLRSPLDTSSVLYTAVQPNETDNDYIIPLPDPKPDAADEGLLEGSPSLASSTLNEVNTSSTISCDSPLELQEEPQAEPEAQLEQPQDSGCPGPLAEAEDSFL

`COc1ccc(Nc2ncnc3cc(OC)c(OC)cc23)cc1OC` showed an IC50 [1] of 2.8 µM and an IC50 [2] of 4.5 µM.
Work on `CCc1cccc(Oc2ccnc3cc(OC)c(OC)cc23)c1` yielded an IC50 [2] of 8.4 µM.
`COc1cc2nccc(Oc3cccc(O)c3)c2cc1OC` was tested, and the IC50 [2] was 0.56 µM.
Molecule `COc1cc2nccc(Oc3cccc(Br)c3)c2cc1OC` has an IC50 [1] of 2.5 µM and an IC50 [2] of 8.4 µM.
For `COc1cc(OC)cc(Oc2ccnc3cc(OC)c(OC)cc23)c1`, the IC50 [2] was 5.5 µM.
`COc1cc2nccc(Oc3cccc(F)c3)c2cc1OC` was tested, and the IC50 [2] was 1.5 µM.
In the case of `COc1cc2nccc(Oc3c(OC)cccc3OC)c2cc1OC`, the IC50 [2] is reported as 69.3 µM.
In the case of `COc1cc2nccc(Oc3cccc(N)c3)c2cc1OC`, the IC50 [2] is reported as 1.7 µM.
For `COc1ccc(Oc2ccnc3cc(OC)c(OC)cc23)cc1OC`, the IC50 [3] was > 10 µM, the IC50 [4] was > 10 µM and the IC50 [5] was > 10 µM. The IC50 [6] was > 20 µM and the IC50 [7] was > 10 µM.
With `COc1cc2nccc(Oc3ccccc3)c2cc1OC` the IC50 [2] was 0.76 µM.
In the case of `COc1cc2nccc(Oc3ccccc3OC)c2cc1OC`, the IC50 [2] is reported as 0.6 µM.
In the case of `COc1ccc(Oc2ncnc3cc(OC)c(OC)cc23)cc1OC`, the IC50 [1] is reported as > 100 µM and the IC50 [2] is reported as 0.57 µM.
Molecule `COc1ccc(Nc2ccnc3cc(OC)c(OC)cc23)cc1OC` has an IC50 [1] of 80.5 µM and an IC50 [2] of 2.6 µM.
`COc1cc2nccc(Oc3cccc(OC)c3OC)c2cc1OC` was tested, and the IC50 [2] was 4.4 µM.
For `CCOc1cccc(Oc2ccnc3cc(OC)c(OC)cc23)c1`, the IC50 [2] was 12.9 µM.
For `COc1cc2nccc(Nc3cccc(Br)c3)c2cc1OC`, the IC50 [2] was 21.5 µM.
In the case of `COc1ccc(Oc2ccnc3cc(OC)c(OC)cc23)cc1`, the IC50 [2] is reported as 1.9 µM.
`COc1cc2ncnc(Oc3cccc(Br)c3)c2cc1OC` showed an IC50 [1] of 0.07 µM and an IC50 [2] of 14.8 µM.
Work on `COc1cc2nccc(Oc3cccc(C)c3)c2cc1OC` yielded an IC50 [2] of 6.9 µM.
For `COc1cc2nccc(Oc3cccc([N+](=O)[O-])c3)c2cc1OC`, the IC50 [2] was 0.7 µM.

From ChEMBL document CHEMBL1152084 (Bioorg Med Chem Lett, 1997)
